For the experiment, the system named is DDB2 degradation by CUL4A in MEF cells expressing FLAG-tagged DDB2. Description: cell-based assay for DDB2 degradation by CUL4A following UV. On the set-up: species or system Mouse. As to conditions: positive control, FIG. 2 lane 3. An excerpt: FIG. 2 is an image which depicts experimental data illustrating the results of a cell-based DDB2 degradation assay. The tested compounds, which are described in detail in FIGS. 7-11, included the following small molecule compounds: PZ-104 (lane 1); PZ-108 (lane 2); PZ-106 (lane 3); PZ-101 (lane 4); PZ-103 (lane 5); PZ-501 (lane 6); PZ-202 (lane 7); PZ-203 (lane 8); PZ-201 (lane 9); PZ-301 (lane 10); PZ-305 (lane 11); PZ-303 (lane 12); PZ-601 (lane 13); PZ-701 (lane 14); PZ-701 (lane 15); PZ-901 (lane 16); PZ-1001 (lane 17); PZ-1101 (lane 18); PZ-1201 (lane 19); PZ-401 (lane IV1); PZ-402 (lane IV2); and PZ-403 (IV3). MG132, a proteasome inhibitor that blocks UV-induced DDB2 degradation, was a positive control. Tubulin levels were determined by Western blotting as a loading control. […]
A cell-based assay for DDB2 degradation by CUL4A following exposure to UV light was used as a second validation assay to evaluate the hit compounds. […] Three hours post UV exposure, cells were lysed in 1×SDS buffer and protein concentrations were measured by the BCA kit. F-DDB2 levels were detected by SDS PAGE and Western blotting, and tubulin levels were used as loading control. […]

Where a SMILES comes first, the peptide text is derived from it. The star is where a group is joined. Cbz = O=C(OCc1ccccc1)*

Turning to `CC(C)C[C@@H](C=O)NC(=O)[C@H](CC(C)C)NC(=O)[C@H](CC(C)C)NC(=O)OCc1ccccc1` [MG132] (Cbz-Leu-Leu-Leu-aldehyde), the “UV-induced DDB2 degradation” value is “blocks”.

The values are drawn from patent US10617683B2, “Inhibitors of CRL4 ubiquitin ligase and uses thereof” (Cornell University, priority 2012, dated 2020).
